Measurements reported in ChEMBL document CHEMBL5149996, “Structure-Based Optimization and Discovery of M3258, a Specific Inhibitor of the Immunoproteasome Subunit LMP7 (β5i)” (J Med Chem, 2021).

What was measured:
[1] = target: T1, Proteasome subunit beta type-9 (Homo sapiens, UniProt P28065); assay: Inhibition of human 20S immunoproteasome beta-1i subunit using (Ac-PAL)2R110 as substrate preincubated for 2 hrs followed by substrate addition and measured after 1 hr by fluorescence intensity assay
T1 sequence (P28065 whole entry): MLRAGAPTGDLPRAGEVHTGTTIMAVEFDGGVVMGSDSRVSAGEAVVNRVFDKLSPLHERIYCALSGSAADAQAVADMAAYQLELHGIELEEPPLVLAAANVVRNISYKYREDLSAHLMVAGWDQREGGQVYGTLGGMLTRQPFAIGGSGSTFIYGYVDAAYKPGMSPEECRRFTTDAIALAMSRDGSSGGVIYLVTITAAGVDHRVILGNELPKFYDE

[2] = target: T2, Proteasome subunit beta type-10 (Homo sapiens, UniProt P40306); assay: Inhibition of human 20S immunoproteasome beta-2i subunit using Ac-RLR-AMC as substrate preincubated for 2 hrs followed by substrate addition and measured after 1 hr by fluorescence intensity assay
T2 sequence (P40306 whole entry): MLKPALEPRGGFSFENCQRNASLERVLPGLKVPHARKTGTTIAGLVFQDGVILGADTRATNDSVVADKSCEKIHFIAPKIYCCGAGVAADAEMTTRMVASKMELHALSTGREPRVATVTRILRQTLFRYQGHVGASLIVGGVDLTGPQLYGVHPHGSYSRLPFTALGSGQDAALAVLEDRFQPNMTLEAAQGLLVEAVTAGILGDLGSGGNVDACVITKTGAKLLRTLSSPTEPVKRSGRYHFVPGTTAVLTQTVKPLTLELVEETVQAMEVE

[3] = target: T3, Proteasome subunit beta type-8 (Homo sapiens, UniProt P28062); assay: Inhibition of human 20S immunoproteasome beta-5i subunit using Suc-LLVY-AMC as substrate preincubated for 2 hrs followed by substrate addition and measured after 1 hr by fluorescence intensity assay
T3 sequence (P28062 whole entry): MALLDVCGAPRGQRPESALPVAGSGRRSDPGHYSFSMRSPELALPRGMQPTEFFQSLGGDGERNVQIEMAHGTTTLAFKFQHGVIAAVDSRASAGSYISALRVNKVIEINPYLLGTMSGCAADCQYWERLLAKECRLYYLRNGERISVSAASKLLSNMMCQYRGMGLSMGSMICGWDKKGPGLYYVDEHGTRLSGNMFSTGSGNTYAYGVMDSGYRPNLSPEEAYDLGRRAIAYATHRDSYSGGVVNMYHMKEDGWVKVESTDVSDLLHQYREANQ

[4] = target: T4, Proteasome subunit beta type-6 (Homo sapiens, UniProt P28072); assay: Inhibition of human 20S […] beta1 subunit using Ac-nLPnLD-AMC as substrate preincubated for 2 hrs followed by substrate addition and measured after 1 hr by fluorescence intensity assay
T4 sequence (P28072 whole entry): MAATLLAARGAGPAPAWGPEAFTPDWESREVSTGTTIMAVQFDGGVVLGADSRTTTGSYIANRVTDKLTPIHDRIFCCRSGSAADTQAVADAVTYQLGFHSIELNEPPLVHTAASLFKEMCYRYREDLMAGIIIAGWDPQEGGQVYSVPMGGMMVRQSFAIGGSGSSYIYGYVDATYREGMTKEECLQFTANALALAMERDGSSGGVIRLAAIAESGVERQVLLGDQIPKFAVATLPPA

[5] = target: T5, Proteasome subunit beta type-7 (Homo sapiens, UniProt Q99436); assay: Inhibition of human 20S proteasome beta2 subunit using Ac-RLR-AMC as substrate preincubated for 2 hrs followed by substrate addition and measured after 1 hr by fluorescence intensity assay
T5 sequence (Q99436 whole entry): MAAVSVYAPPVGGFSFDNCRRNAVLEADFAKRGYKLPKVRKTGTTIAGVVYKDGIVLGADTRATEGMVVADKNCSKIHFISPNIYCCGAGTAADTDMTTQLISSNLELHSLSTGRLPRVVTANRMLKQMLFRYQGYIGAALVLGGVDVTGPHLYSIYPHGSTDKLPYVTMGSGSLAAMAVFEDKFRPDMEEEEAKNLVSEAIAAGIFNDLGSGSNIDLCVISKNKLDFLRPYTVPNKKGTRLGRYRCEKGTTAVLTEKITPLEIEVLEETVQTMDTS

[6] = target: T6, Proteasome Macropain subunit MB1 (Homo sapiens, UniProt P28074); assay: Inhibition of human 20S proteasome beta5 subunit using Suc-LLVY-AMC as substrate preincubated for 2 hrs followed by substrate addition and measured after 1 hr by fluorescence intensity assay
T6 sequence (P28074 whole entry): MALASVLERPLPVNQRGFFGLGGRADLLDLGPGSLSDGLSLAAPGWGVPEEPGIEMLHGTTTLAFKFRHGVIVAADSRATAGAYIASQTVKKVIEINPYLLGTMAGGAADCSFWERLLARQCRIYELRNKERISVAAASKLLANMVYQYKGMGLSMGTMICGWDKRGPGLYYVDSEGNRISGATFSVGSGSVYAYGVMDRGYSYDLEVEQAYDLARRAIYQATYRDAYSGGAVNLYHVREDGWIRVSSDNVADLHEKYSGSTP

[7] = organism: Homo sapiens; assay: Selectivity ratio of IC50 for inhibition of human 20S proteasome beta5 subunit to IC50 for inhibition of human 20S immunoproteasome beta-5i subunit
[8] = target: T6, Proteasome Macropain subunit MB1; assay: Inhibition of 20S proteasome beta5 subunit in human A549 cells using Suc-LLVY-luciferin substrate preincubated for 2 hrs followed by substrate addition and measured after 30 mins by luminometric analysis; format: cell-based
[9] = target: T3, Proteasome subunit beta type-8; assay: Inhibition of 20S immunoproteasome beta-5i subunit in human PBMC using Ac-ANW-luciferin substrate preincubated for 2 hrs followed by substrate addition and measured after 30 mins by luminometric analysis; format: cell-based
[10] = organism: Homo sapiens; assay: Selectivity ratio of IC50 for inhibition of 20S proteasome beta5 subunit in human A549 cells to IC50 for inhibition of 20S immunoproteasome beta-5i subunit in human PBMC; format: cell-based
[11] = Lipophilicity, log P of the compound; format: physicochemical; settings: octanol/water
[12] = Distribution coefficient, log D of the compound; format: physicochemical; settings: octanol/water
[13] = Kinetic solubility of the compound; format: physicochemical; settings: read-out: Kinetic_solubility
[14] = Intrinsic clearance in human liver microsomes measured per mg protein; format: ADME, Microsome
[15] = Intrinsic clearance in mouse liver microsomes measured per mg protein; format: ADME, Microsome; settings: read-out: CLH
[16] = Clearance in iv dosed mouse; format: ADME, organism-based; settings: in vivo
[17] = Volume of distribution at steady state in iv dosed mouse; format: ADME, organism-based; settings: in vivo
[18] = Half life in iv dosed mouse; format: ADME, organism-based; settings: in vivo
[19] = Oral bioavailability in mouse at 0.5 mg/kg; format: ADME, organism-based; settings: in vivo
[20] = system: HepG2; assay: Cytotoxicity against human HepG2 cells assessed as depletion of ATP content up to 500 uM incubated for 48 to 72 hrs by CellTiter-Glo luminescent assay; format: toxicity, cell-based; settings: hepg2, 500 µM, time 48-72 hrs
[21] = system: Hepatocyte; assay: Cytotoxicity against Wistar Han rat hepatocytes assessed as depletion of ATP content up to 500 uM incubated for 48 to 72 hrs by CellTiter-Glo luminescent assay; format: toxicity, cell-based; settings: time 48-72 hrs
[22] = system: Hepatocyte; assay: Cytotoxicity against human primary hepatocytes assessed as depletion of ATP content up to 500 uM incubated for 48 to 72 hrs by CellTiter-Glo luminescent assay; format: toxicity, cell-based; settings: time 48-72 hrs
[23] = Clearance in mouse hepatocytes measured per million of cells; format: ADME, cell-based, Hepatocyte; settings: read-out: CLH
[24] = Clearance in human hepatocytes measured per million of cells; format: ADME, cell-based, Hepatocyte; settings: read-out: CLH

Row | IC50 [1] | IC50 [2] | IC50 [3] | IC50 [4] | IC50 [5] | IC50 [6] | Ratio IC50 [7] | IC50 [8] | IC50 [9] | logP [11] | logD [12] | solubility kinetic [13] | bioavailability [19] | SMILES | Ratio IC50 [10] | CLH [14] | microsomal CLint [15] | further results
1 | 11 nM | 4000 nM | 1.7 nM | 8500 nM | > 30000 nM | 41 nM | 24 | – | – | – | – | – | – | CCc1cccc(C[C@H](NC(=O)[C@H](Cc2ccccc2)NC(=O)c2cnccn2)B(O)O)c1 | – | – | – | –
2 | 2.7 nM | 4870 nM | 2.9 nM | 64 nM | > 30000 nM | – | – | – | – | – | – | – | – | CC(C)C[C@H](NC(=O)CNC(=O)c1cc(Cl)ccc1Cl)B(O)O | – | – | – | –
3 | – | – | 3.1 nM | – | – | 2400 nM | 758 | 2520 nM | 20 nM | 1.75 | 1.3 | > 200 µM | 13% | N#Cc1ccccc1CC(=O)N[C@@H](C[C@@H]1COc2ccccc21)B(O)O | 126 | < 10 µL/min/mg | 37 µL/min/mg | clearance [16]: 32.8 mL/min/kg; Vd ([17]; read-out: Vdss): 1.88 L/kg; half-life [18]: 42.6 min
4 | – | – | 2.1 nM | – | – | 900 nM | 419 | 573 nM | 14 nM | 3.5 | 1 | > 200 µM | 37% | O=C(Cc1ccccc1)N[C@@H](Cc1coc2ccccc12)B(O)O | 41 | – | – | CL ([16]; iv): 3 mL/min/kg; Vdss ([17]; iv): 2.25 L/kg; t1/2 ([18]; iv): 22.2 min
5 | – | – | – | – | – | – | – | – | – | – | – | – | – | CC(C)C[C@H](NC(=O)[C@H](Cc1ccccc1)NC(=O)c1cnccn1)B(O)O [BORTEZOMIB] | – | – | – | Activity [20]: Toxic; Activity [21]: Toxic; Activity [22]: Toxic

Row | SMILES | IC50 [1] | IC50 [2] | IC50 [3] | IC50 [4] | IC50 [5] | IC50 [6] | Ratio IC50 [7] | IC50 [8] | IC50 [9] | logP [11] | logD [12] | solubility kinetic [13] | bioavailability [19] | Ratio IC50 [10] | CLH [14] | microsomal CLint [15] | further results
6 | O=C(N[C@@H](Cc1coc2ccccc12)B(O)O)[C@H]1C[C@@H]2CC[C@H]1O2 | – | – | 15 nM | – | – | 6500 nM | 444 | 2440 nM | 19.6 nM | 2.25 | – | – | – | 124 | < 10 µL/min/mg | 16 µL/min/mg | hepatocyte CLint [23]: 15.9 µL/min/1e6 cells; hepatocyte CLint [24]: 6.6 µL/min/1e6 cells
